Here are results for 13 compounds from patent US20260297085A1, “1 H-PYRROLO[2,3-B]PYRIDIN-4-YL]-2-OXOPYRROLIDINE-3-CARBONITRILE DERIVATIVES AS TYROSINE KINASE 2 (TYK2) INHIBITORS FOR THE TREATMENT OF INFLAMMATORY DISEASES” (BIOGEN MA INC., priority 2023, published 2026).

For assay [1], the target named is Tyk2 kinase activity on STAT4 in NK92 cells (Homo sapiens, UniProt P29597). Briefly: pSTAT4 cell assay (MSD; NK92 cells, 30 ng/mL IL2 stimulation). The class given is cell-based. The note with it: 30 ng/mL IL2, 15 minutes. In a few lines:
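Compound treatment of starved NK92 cells ran 1 hr before a 15-minute, 30 ng/mL IL2 pulse; lysates went to an MSD anti-STAT4 antibody assay, with curves fitted by 4-parameter logistic model.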

Assay [2] deals with T1, human JAK2 kinase domain (JH1) (Homo sapiens, UniProt O60674).
T1 construct: recombinantly generated catalytic kinase (also known as JH1) domain of human JAK1, JAK2, JAK3 and TYK2
Briefly: JH1 biochemical assay for JAK2 (ADP-Glo kinase assay, recombinant JH1 catalytic domain, JAK3-974 peptide, 15 μM ATP). The note with it: JH1 kinase domain, ADP-Glo. In a few lines: (§1)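 Reactions ran 100 min with 50 μM substrate peptide (JAK3-342 for JAK1 at 4 nM enzyme; JAK3-974 for JAK2 0.2 nM, JAK3 0.3 nM, TYK2 2 nM), and ADP formed was read by ADP-Glo luminescence. Eleven-point 3-fold series from 10 or 1 μM; IC50 fitted by 4-parameter logistic model.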
For orientation: In ADP-Glo the light output rises with the ADP produced.

Assay [3] deals with JAK1 kinase activity on STAT3 in TF1 cells (Homo sapiens, UniProt P23458). Briefly: pSTAT3 cell assay (MSD; TF1 cells, 30 ng/mL IL-6 stimulation). To be noted: 30 ng/mL IL-6, 15 minutes. The class given is cell-based. The method, boiled down: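 IC50 values reflect 4-parameter logistic fits of normalized pSTAT3 signal, measured by MSD in lysed TF1 cells. Cells were serum-starved and treated with compound for 1 h (top concentration 10 μM) before a 15 min IL-6 challenge.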

Assay [4] has as its target JAK2 kinase activity on STAT5 in TF1 cells (Homo sapiens, UniProt O60674). Description: pSTAT5 cell assay (MSD; TF1 cells, 30 ng/mL IL-3 stimulation). The class given is cell-based. The note with it: 30 ng/mL IL-3, 15 minutes. The method, boiled down:
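IC50 from a 4-parameter logistic fit of normalized pSTAT5 signal, measured by MSD in lysates of TF1 cells. Cells were serum-starved, exposed to compound for 1 h (top concentration 10 μM, four-fold, 10 points), then given IL-3 at 30 ng/mL for 15 min.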

Assay [5] deals with T2, human JAK1 kinase domain (JH1) (Homo sapiens, UniProt P23458).
T2 construct: recombinantly generated catalytic kinase (also known as JH1) domain of human JAK1, JAK2, JAK3 and TYK2
Briefly: JH1 biochemical assay for JAK1 (ADP-Glo kinase assay, recombinant JH1 catalytic domain, JAK3-342 peptide, 35 μM ATP). To be noted: JH1 kinase domain, ADP-Glo. In a few lines: as §1

In assay [6] the target is T3, human TYK2 kinase domain (JH1) (Homo sapiens, UniProt P29597).
T3 construct: recombinantly generated catalytic kinase (also known as JH1) domain of human JAK1, JAK2, JAK3 and TYK2
T3 sequence (P29597 897-1176 limits assumed): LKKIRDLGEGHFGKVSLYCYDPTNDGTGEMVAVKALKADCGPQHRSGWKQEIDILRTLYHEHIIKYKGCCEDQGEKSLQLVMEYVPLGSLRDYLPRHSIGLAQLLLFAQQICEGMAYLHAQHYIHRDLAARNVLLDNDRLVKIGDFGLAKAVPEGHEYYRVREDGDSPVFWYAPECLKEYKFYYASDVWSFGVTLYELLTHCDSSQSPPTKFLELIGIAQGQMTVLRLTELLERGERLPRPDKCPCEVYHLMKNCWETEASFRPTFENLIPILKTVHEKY
Description: JH1 biochemical assay for TYK2 (ADP-Glo kinase assay, recombinant JH1 catalytic domain, JAK3-974 peptide, 10 μM ATP). To be noted: JH1 kinase domain, ADP-Glo. The method, boiled down:
as §1

The target of assay [7] is T4, human JAK3 kinase domain (JH1) (Homo sapiens, UniProt P52333).
T4 construct: recombinantly generated catalytic kinase (also known as JH1) domain of human JAK1, JAK2, JAK3 and TYK2
Description: JH1 biochemical assay for JAK3 (ADP-Glo kinase assay, recombinant JH1 catalytic domain, JAK3-974 peptide, 4 μM ATP). To be noted: JH1 kinase domain, ADP-Glo. In a few lines: as §1

Structures are written as SMILES. Structures can show the parent of a compound that is named as a salt.

JAK1 kinase activity on STAT3 in TF1 cells, sequence (P23458 whole entry): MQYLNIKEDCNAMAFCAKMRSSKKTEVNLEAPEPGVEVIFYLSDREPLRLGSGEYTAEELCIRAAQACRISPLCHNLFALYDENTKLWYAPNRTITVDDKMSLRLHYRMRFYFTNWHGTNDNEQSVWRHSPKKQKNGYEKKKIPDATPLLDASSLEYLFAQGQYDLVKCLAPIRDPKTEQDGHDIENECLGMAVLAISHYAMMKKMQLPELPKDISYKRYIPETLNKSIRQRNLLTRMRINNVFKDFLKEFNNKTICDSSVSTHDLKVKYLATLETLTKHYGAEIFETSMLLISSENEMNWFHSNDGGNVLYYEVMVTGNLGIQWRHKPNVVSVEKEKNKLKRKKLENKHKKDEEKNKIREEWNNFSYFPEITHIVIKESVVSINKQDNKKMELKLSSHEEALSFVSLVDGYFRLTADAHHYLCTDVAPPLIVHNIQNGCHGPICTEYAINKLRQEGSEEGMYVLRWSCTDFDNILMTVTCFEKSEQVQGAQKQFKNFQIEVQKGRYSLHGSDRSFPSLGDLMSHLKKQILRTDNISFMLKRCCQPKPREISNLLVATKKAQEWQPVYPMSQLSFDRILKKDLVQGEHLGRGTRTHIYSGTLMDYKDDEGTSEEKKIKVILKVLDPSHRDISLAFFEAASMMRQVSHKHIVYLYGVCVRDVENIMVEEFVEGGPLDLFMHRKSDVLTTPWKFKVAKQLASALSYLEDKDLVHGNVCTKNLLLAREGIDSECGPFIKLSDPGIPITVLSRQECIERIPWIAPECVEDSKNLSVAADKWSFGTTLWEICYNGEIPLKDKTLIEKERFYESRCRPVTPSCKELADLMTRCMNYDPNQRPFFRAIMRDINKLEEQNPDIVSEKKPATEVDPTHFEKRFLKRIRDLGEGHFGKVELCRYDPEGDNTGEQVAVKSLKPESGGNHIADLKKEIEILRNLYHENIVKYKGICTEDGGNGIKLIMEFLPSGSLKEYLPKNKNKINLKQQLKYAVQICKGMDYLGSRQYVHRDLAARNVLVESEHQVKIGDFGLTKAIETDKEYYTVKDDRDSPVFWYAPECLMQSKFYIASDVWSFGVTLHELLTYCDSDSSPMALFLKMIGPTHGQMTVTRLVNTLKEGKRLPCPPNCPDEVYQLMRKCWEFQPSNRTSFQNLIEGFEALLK
T1 sequence (O60674 849-1124 limits assumed): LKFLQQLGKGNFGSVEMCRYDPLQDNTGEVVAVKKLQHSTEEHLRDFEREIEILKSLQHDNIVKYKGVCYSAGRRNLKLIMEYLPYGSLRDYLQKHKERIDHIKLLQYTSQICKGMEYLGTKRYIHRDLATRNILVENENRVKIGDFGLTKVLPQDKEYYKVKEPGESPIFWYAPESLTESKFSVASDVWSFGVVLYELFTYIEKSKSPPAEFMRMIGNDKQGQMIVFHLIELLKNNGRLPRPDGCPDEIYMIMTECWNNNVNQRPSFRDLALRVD
T4 sequence (P52333 822-1111 limits assumed): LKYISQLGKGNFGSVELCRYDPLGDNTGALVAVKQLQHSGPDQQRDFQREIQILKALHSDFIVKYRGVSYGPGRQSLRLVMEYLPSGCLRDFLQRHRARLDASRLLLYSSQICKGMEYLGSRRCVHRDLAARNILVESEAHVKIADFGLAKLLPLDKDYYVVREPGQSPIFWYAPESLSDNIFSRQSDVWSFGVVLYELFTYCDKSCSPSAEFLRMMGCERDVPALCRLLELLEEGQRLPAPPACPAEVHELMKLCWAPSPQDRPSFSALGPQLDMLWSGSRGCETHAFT
Tyk2 kinase activity on STAT4 in NK92 cells, sequence (P29597 whole entry): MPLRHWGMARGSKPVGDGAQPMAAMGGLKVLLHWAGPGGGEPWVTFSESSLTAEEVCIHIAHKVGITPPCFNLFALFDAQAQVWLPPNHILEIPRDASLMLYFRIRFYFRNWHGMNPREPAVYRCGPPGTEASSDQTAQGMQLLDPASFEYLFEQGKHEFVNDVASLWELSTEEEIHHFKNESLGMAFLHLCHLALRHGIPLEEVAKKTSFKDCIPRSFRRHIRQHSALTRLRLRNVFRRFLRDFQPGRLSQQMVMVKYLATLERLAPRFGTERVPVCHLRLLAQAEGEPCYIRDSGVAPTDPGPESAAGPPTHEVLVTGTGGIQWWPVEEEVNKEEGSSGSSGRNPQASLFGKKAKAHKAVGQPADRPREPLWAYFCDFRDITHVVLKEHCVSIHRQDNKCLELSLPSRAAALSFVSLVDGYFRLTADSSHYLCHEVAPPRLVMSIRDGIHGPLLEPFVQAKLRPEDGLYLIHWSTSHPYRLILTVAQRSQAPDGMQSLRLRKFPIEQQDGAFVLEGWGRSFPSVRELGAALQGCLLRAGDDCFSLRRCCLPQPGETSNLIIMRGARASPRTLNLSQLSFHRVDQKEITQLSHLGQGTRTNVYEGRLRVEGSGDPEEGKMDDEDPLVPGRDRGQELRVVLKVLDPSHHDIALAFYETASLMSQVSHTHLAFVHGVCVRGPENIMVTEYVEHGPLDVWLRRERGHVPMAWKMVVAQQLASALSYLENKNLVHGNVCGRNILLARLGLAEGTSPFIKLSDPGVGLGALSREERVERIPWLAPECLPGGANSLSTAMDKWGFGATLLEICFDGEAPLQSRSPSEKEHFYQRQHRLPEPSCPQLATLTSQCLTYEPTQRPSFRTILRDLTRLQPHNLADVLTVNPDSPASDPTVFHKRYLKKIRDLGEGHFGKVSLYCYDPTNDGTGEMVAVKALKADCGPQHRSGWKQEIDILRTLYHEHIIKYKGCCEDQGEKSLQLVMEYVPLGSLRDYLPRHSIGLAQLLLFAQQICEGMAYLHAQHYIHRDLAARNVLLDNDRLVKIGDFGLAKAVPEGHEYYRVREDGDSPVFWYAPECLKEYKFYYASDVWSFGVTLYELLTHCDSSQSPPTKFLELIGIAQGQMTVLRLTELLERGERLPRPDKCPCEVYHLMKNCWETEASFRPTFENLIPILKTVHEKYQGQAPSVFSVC
JAK2 kinase activity on STAT5 in TF1 cells, sequence (O60674 whole entry): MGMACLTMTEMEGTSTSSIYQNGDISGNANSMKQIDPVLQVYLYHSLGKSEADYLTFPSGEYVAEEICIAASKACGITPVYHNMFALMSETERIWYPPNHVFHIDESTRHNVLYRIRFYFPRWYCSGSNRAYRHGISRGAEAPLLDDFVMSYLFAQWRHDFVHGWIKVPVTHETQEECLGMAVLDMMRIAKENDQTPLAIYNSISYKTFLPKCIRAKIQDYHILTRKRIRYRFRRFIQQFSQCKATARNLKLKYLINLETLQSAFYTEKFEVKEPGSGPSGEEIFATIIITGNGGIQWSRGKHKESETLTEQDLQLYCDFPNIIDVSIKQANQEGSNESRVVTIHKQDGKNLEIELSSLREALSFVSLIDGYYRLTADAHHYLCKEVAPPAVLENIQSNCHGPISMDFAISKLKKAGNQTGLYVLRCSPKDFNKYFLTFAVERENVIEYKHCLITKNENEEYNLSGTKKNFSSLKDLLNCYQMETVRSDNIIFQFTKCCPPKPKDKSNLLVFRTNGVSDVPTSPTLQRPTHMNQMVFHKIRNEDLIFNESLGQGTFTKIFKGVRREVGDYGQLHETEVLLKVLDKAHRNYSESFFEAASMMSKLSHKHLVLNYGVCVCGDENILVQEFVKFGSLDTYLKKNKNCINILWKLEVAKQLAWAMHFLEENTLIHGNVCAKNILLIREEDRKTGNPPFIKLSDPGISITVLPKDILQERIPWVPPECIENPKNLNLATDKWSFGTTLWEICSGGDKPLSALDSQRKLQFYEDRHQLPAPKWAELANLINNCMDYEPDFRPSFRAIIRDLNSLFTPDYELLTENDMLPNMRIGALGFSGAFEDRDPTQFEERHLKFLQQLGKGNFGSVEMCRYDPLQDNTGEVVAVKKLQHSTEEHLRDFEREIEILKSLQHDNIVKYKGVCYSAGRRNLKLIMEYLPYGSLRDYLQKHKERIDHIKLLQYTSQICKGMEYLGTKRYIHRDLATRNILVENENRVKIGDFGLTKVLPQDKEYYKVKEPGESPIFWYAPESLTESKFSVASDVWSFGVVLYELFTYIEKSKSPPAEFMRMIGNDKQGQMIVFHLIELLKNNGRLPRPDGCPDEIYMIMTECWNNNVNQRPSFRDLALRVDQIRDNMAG
T2 sequence (P23458 875-1153 limits assumed): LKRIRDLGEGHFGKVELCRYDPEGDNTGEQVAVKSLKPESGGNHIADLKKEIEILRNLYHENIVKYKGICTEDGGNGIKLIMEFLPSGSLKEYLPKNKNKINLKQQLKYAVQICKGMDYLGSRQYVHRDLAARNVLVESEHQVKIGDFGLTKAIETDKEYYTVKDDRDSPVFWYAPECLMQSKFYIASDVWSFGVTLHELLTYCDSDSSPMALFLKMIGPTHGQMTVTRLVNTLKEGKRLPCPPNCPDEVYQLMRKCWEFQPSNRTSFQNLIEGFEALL

A word on the IC50: it is the point on the concentration scale where inhibition reaches its midpoint. In the case of `C[C@@H]1CN(c2ccnn3cc(-c4ccc5nccn5c4)cc23)C(=O)[C@]1(C#N)C1CC1` [Example 88, (3R,4S)-3-cyclopropyl-1-(6-(imidazo[1,2-a]pyridin-6-yl)pyrrolo[1,2-b]pyridazin-4-yl)-4-methyl-2-oxopyrrolidine-3-carbonitrile], the IC50 in assay [1] is 20 to 50 nM; in assay [2], 100 to 1000 nM; in assay [3] it was 0.1 to 1 µM; in assay [4], 1 to 5 µM; in assay [5], below 100 nM; in assay [6], below 5 nM. The IC50 in assay [7] lay in the range of 100 to 1000 nM.

For the compound `CC(=O)Nc1cncc(-c2cc3c(N4C[C@@H](C)[C@@](C#N)(C5CC5)C4=O)ccnn3c2)c1` [Example 90, N-(5-(4-((3R,4S)-3-cyano-3-cyclopropyl-4-methyl-2-oxopyrrolidin-1-yl)pyrrolo[1,2-b]pyridazin-6-yl)pyridin-3-yl)acetamide], the IC50 is above 100 nM in assay [1]; 100 to 1000 nM in assay [2]; 5 to 10 µM in assay [3]; above 10 µM in assay [4]; 100 to 1000 nM in assay [5]; 5 to 20 nM in assay [6]. The IC50 in assay [7] lay within 100 to 1000 nM.

In the case of `C[C@@H]1CN(c2ccnn3cc(-c4ccnc(C#N)c4)cc23)C(=O)[C@]1(C#N)C1CC1` [Example 93, 4-(4-((3R,4S)-3-cyano-3-cyclopropyl-4-methyl-2-oxopyrrolidin-1-yl)pyrrolo[1,2-b]pyridazin-6-yl)picolinonitrile], the IC50 in assay [1] is above 100 nM; in assay [2] it was 100 to 1000 nM; in assay [3], 5 to 10 µM; in assay [4], above 10 µM; in assay [5], 100 to 1000 nM; in assay [6] it was 5 to 20 nM. The IC50 in assay [7] was 100 to 1000 nM.

Consider `COc1ncccc1-c1cc2c(N3C[C@@H](C)[C@@](C#N)(C4CC4)C3=O)ccnn2c1` [Example 96, (3R,4S)-3-cyclopropyl-1-(6-(2-methoxypyridin-3-yl)pyrrolo[1,2-b]pyridazin-4-yl)-4-methyl-2-oxopyrrolidine-3-carbonitrile], for which the IC50 in assay [1] is above 100 nM; in assay [2], 1000 to 5000 nM; in assay [3], above 10 µM; in assay [4], above 10 µM; in assay [5], 1000 to 5000 nM; in assay [6], 5 to 20 nM. Besides, the IC50 in assay [7] lay within 1000 to 5000 nM.

For the compound `C[C@@H]1CN(c2ccnn3cc(-c4cnn(C5COC5)c4)cc23)C(=O)[C@]1(C#N)C1CC1` [Example 97, (3R,4S)-3-cyclopropyl-4-methyl-1-(6-(1-(oxetan-3-yl)-1H-pyrazol-4-yl)pyrrolo[1,2-b]pyridazin-4-yl)-2-oxopyrrolidine-3-carbonitrile], the IC50 in assay [1] is 20 to 50 nM; in assay [2], below 100 nM; in assay [3] it was 1 to 5 µM; in assay [4] it was 1 to 5 µM; in assay [5] it was below 100 nM; in assay [6], below 5 nM. Besides, the IC50 in assay [7] was below 100 nM.

Regarding `C[C@@H]1CN(c2ccnn3cc(-c4cnc(C(F)F)s4)cc23)C(=O)[C@]1(C#N)C1CC1` [Example 101, (3R,4S)-3-cyclopropyl-1-(6-(2-(difluoromethyl)thiazol-5-yl)pyrrolo[1,2-b]pyridazin-4-yl)-4-methyl-2-oxopyrrolidine-3-carbonitrile trifluoroacetate], the IC50 is above 100 nM in assay [1]; 100 to 1000 nM in assay [2]; 1 to 5 µM in assay [3]; above 10 µM in assay [4]; 100 to 1000 nM in assay [5]; 5 to 20 nM in assay [6]. Further, in assay [7], the IC50 was in the range of 100 to 1000 nM.

Take `C[C@@H]1CN(c2ccnn3cc(-c4nc5cnccc5s4)cc23)C(=O)[C@]1(C#N)C1CC1` [Example 102, (3R,4S)-3-cyclopropyl-4-methyl-2-oxo-1-(6-(thiazolo[4,5-c]pyridin-2-yl)pyrrolo[1,2-b]pyridazin-4-yl)pyrrolidine-3-carbonitrile trifluoroacetate]: the IC50 in assay [1] was above 100 nM; in assay [2], 1000 to 5000 nM; in assay [3] it was 5 to 10 µM; in assay [4] it was above 10 µM; in assay [5], 100 to 1000 nM; in assay [6], 5 to 20 nM. In addition, the IC50 in assay [7] lay within 100 to 1000 nM.

In the case of `C[C@@H]1CN(c2ccnn3cc(-c4cnc5cc(C#N)ccn45)cc23)C(=O)[C@]1(C#N)C1CC1` [Example 103, 3-(4-((3R,4S)-3-cyano-3-cyclopropyl-4-methyl-2-oxopyrrolidin-1-yl)pyrrolo[1,2-b]pyridazin-6-yl)imidazo[1,2-a]pyridine-7-carbonitrile trifluoroacetate], the IC50 in assay [1] was above 100 nM; in assay [2], above 10000 nM; in assay [3] it was above 10 µM; in assay [4] it was above 10 µM; in assay [5], above 10000 nM; in assay [6], 5 to 20 nM. In assay [7], the IC50 was above 10000 nM.

Regarding `C[C@@H]1CN(c2ccnn3cc(-c4cc5ccccn5n4)cc23)C(=O)[C@]1(C#N)C1CC1` [Example 104, (3R,4S)-3-cyclopropyl-4-methyl-2-oxo-1-(6-(pyrazolo[1,5-a]pyridin-2-yl)pyrrolo[1,2-b]pyridazin-4-yl)pyrrolidine-3-carbonitrile trifluoroacetate], the IC50 is above 100 nM in assay [1]; 100 to 1000 nM in assay [2]; 1 to 5 µM in assay [3]; 5 to 10 µM in assay [4]; 100 to 1000 nM in assay [5]; below 5 nM in assay [6]. For the same compound, the IC50 in assay [7] was in the range of 100 to 1000 nM.

Turning to `C[C@@H]1CN(c2ccnn3cc(-c4cn5c(n4)CCC5)cc23)C(=O)[C@]1(C#N)C1CC1` [Example 106, (3R,4S)-3-cyclopropyl-1-(6-(6,7-dihydro-5H-pyrrolo[1,2-a]imidazol-2-yl)pyrrolo[1,2-b]pyridazin-4-yl)-4-methyl-2-oxopyrrolidine-3-carbonitrile trifluoroacetate], the IC50 in assay [1] was above 100 nM; in assay [2], 100 to 1000 nM; in assay [3], above 10 µM; in assay [4], above 10 µM; in assay [5], 100 to 1000 nM; in assay [6], below 5 nM. In addition, the IC50 in assay [7] was 100 to 1000 nM.

With `C[C@@H]1CN(c2ccnn3cc(-c4cc5n(n4)CCO5)cc23)C(=O)[C@]1(C#N)C1CC1` [Example 110, (3R,4S)-3-cyclopropyl-1-(6-(2,3-dihydropyrazolo[5,1-b]oxazol-6-yl)pyrrolo[1,2-b]pyridazin-4-yl)-4-methyl-2-oxopyrrolidine-3-carbonitrile trifluoroacetate], the IC50 is above 100 nM in assay [1]; 100 to 1000 nM in assay [2]; above 10 µM in assay [3]; above 10 µM in assay [4]; 100 to 1000 nM in assay [5]; 5 to 20 nM in assay [6]. Moreover, the IC50 in assay [7] is 100 to 1000 nM.

For `C[C@@H]1CN(c2ccnn3cc(-c4cn(C)cn4)cc23)C(=O)[C@]1(C#N)C1CC1` [Example 111, (3R,4S)-3-cyclopropyl-4-methyl-1-(6-(1-methyl-1H-imidazol-4-yl)pyrrolo[1,2-b]pyridazin-4-yl)-2-oxopyrrolidine-3-carbonitrile trifluoroacetate], the IC50 is above 100 nM in assay [1]; 100 to 1000 nM in assay [2]; above 10 µM in assay [3]; above 10 µM in assay [4]; 100 to 1000 nM in assay [5]; below 5 nM in assay [6]. For the same compound, in assay [7], the IC50 fell in the range of 100 to 1000 nM.

For the compound `C[C@@H]1CN(c2ccnn3cc(-c4cn(C)nn4)cc23)C(=O)[C@]1(C#N)C1CC1` [Example 112, (3R,4S)-3-cyclopropyl-4-methyl-1-(6-(1-methyl-1H-1,2,3-triazol-4-yl)pyrrolo[1,2-b]pyridazin-4-yl)-2-oxopyrrolidine-3-carbonitrile trifluoroacetate], the IC50 in assay [1] is above 100 nM; in assay [2], 100 to 1000 nM; in assay [3], above 10 µM; in assay [4], above 10 µM; in assay [5], 100 to 1000 nM; in assay [6], 5 to 20 nM. Besides, the IC50 in assay [7] was in the range of 100 to 1000 nM.
